Like-named read-outs stand apart in the source and are kept apart here.
Assays:
Human plasma kallikrein = Human plasma kallikrein (Homo sapiens (Human), UniProt P03952); assay: Determination of the IC50 for plasma kallikrein; type: biochemical; conditions: 37° C., read-out: IC50 (human PKal)
Experimental: Determination of the IC50 for Plasma Kallikrein
(§1) Plasma kallikrein inhibitory activity in vitro was determined using standard published methods (see e.g. Johansen et al., Int. J. Tiss. Reac. 1986, 8, 185; Shori et al., Biochem. Pharmacol., 1992, 43, 1209; Stiirzebecher et al., Biol. Chem. Hoppe-Seyler, 1992, 373, 1025). Human plasma kallikrein (Protogen) was incubated at 37° C. with the fluorogenic substrate H-DPro-Phe-Arg-AFC and various concentrations of the test compound. Residual enzyme activity (initial rate of reaction) was determined by measuring the change in optical absorbance at 410 nm and the IC50 value for the test compound was determined.

Human KLK1 = Human KLK1 (Homo sapiens (Human), UniProt P06870); assay: Determination of the IC50 for KLK1; type: biochemical; conditions: Human KLK1, 37° C., substrate H-DVal-Leu-Arg-AFC
Experimental: Determination of the IC50 for KLK1
as §1, with “KLK1” for “Plasma kallikrein”, “Stürzebecher” for “Stiirzebecher”, “KLK1 (Callbiochem)” for “plasma kallikrein (Protogen)”, “H-DVal-Leu-Arg-AFC” for “H-DPro-Phe-Arg-AFC”

[1] = fluorogenic substrate H-DPro-Phe-Arg-AFC

Human KLK1, sequence (P06870 25-262): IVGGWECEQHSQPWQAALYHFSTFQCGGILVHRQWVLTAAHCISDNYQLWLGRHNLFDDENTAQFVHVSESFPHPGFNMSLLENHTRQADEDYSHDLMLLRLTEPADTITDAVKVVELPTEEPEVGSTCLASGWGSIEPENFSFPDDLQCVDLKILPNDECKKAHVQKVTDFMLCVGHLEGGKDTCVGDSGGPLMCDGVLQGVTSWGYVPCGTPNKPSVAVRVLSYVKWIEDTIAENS
Human plasma kallikrein, sequence (P03952 391-638): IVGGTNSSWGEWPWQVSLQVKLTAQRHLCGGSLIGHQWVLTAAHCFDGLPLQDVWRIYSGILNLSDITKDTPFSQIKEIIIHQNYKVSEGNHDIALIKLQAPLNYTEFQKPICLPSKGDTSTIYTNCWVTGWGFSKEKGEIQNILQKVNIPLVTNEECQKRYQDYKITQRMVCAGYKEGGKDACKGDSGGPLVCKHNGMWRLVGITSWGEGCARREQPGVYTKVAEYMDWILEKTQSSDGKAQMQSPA
Human plasma kallikrein, sequence (P03952 20-390 partner): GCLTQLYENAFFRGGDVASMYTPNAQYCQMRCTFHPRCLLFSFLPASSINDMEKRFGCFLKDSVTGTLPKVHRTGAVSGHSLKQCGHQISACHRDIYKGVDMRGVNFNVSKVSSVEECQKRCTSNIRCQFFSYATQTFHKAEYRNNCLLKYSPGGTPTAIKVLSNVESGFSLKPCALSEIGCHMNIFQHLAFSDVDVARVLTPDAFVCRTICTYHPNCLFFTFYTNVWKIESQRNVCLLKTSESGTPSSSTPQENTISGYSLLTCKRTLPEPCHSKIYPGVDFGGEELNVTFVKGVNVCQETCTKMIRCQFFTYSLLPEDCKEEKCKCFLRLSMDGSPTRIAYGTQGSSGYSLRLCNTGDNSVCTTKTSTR

| IC50 (Human plasma kallikrein; [1]) | IC50 (Human KLK1; Table 12) | IC50 (Human plasma kallikrein; substrate H-DPro-Phe-Arg-AFC) | IC50 (Human KLK1; Table 13) | SMILES |
| --- | --- | --- | --- | --- |
| – | – | 0.598 µM | > 10 µM | CCOc1ccc(C[C@@H](NC(=O)c2cc(C)nc(Cl)c2)C(=O)N[C@@H](Cc2ccccc2)C(=O)NCc2ccc(CN)cc2)cc1 [Example 110, N-[(R)-1-[(S)-1-(4-Aminomethyl-benzylcarbamoyl)-2-phenyl-ethylcarbamoyl]-2-(4-ethoxy-phenyl)-ethyl]-2-chloro-6-methyl-isonicotinamide] |
| – | – | 0.076 µM | > 10 µM | CCOc1ccc(C[C@@H](NC(=O)c2ccccn2)C(=O)N[C@@H](Cc2ccccc2)C(=O)NCc2ccc(CN)c(F)c2)cc1 [Example 168, Pyridine-2-carboxylic acid [(R)-1-[(S)-1-(4-aminomethyl-3-fluoro-benzylcarbamoyl)-2-phenyl-ethylcarbamoyl]-2-(4-ethoxy-phenyl)-ethyl]-amide] |
| ≥ 10 µM | – | – | – | CCOc1ccc(C[C@@H](NC(=O)CC)C(=O)N(CC)[C@@H](Cc2ccccc2)C(=O)NCc2ccc(CN)cc2)cc1 [Example 65, (S)-N-(4-Aminomethyl-benzyl)-2-{[(R)-3-(4-ethoxy-phenyl)-2-propionylamino-propionyl]-ethyl-amino}-3-phenyl-propionamide] |
| – | – | 0.755 µM | 3.4 µM | CCOc1ccc(C[C@@H](NC(=O)CCCc2ccccc2)C(=O)N[C@@H](Cc2ccccc2)C(=O)NCc2ccc(CN)cc2)cc1 [Example 87, N-[(R)-1-[(S)-1-(4-Aminomethyl-benzylcarbamoyl)-2-phenyl-ethylcarbamoyl]-2-(4-ethoxy-phenyl)-ethyl]-4-phenyl-butyramide] |
| 10 µM | – | – | – | CCOc1ccc(C[C@H](C(=O)N[C@@H](Cc2ccccc2)C(=O)NCc2ccc(CN)cc2)N(C)C)cc1 [Example 13, (R)-N-[(S)-1-(4-Aminomethyl-benzylcarbamoyl)-2-phenyl-ethyl]-2-dimethylamino-3-(4-ethoxy-phenyl)-propionamide] |
| 10 µM | – | – | – | CCOc1ccc(C[C@@H](N)C(=O)N[C@@H](C(=O)NCc2ccc(CN)cc2)[C@@H](O)c2ccccc2)cc1 [Example 60, (R)-2-Amino-N-[(1R,2S)-1-(4-aminomethyl-benzylcarbamoyl)-2-hydroxy-2-phenyl-ethyl]-3-(4-ethoxy-phenyl)-propionamide] |

Continued, compound first:

| SMILES | IC50 (Human plasma kallikrein; [1]) | IC50 (Human KLK1; Table 12) | IC50 (Human plasma kallikrein; substrate H-DPro-Phe-Arg-AFC) | IC50 (Human KLK1; Table 13) |
| --- | --- | --- | --- | --- |
| CCOc1ccc(C[C@@H](C(=O)N[C@@H](Cc2ccccc2)C(=O)NCc2ccc(CN)cc2)N(C)C(=O)CC)cc1 [Example 66, (S)-N-(4-Aminomethyl-benzyl)-2-[(S)-3-(4-ethoxy-phenyl)-2-(methyl-propionyl-amino)-propionylamino]-3-phenyl-propionamide] | 10 µM | 8.4 µM | – | – |
| CCOc1ccc(C[C@@H](NC(=O)CC)C(=O)N[C@@H](C(=O)NCc2ccc(CN)cc2)[C@@H](O)c2ccccc2)cc1 [Example 62, (2R,3S)-N-(4-Aminomethyl-benzyl)-2-[(R)-3-(4-ethoxy-phenyl)-2-propionylamino-propionylamino]-3-hydroxy-3-phenyl-propionamide] | ≥ 10 µM | – | – | – |
| CCCCCCNC(=O)N[C@H](Cc1ccc(OCC)cc1)C(=O)N[C@@H](Cc1ccccc1)C(=O)NCc1ccc(CN)cc1 [Example 78, (R)-N-[(S)-1-(4-Aminomethyl-benzylcarbamoyl)-2-phenyl-ethyl]-3-(4-ethoxy-phenyl)-2-(3-hexyl-ureido)-propionamide] | – | – | 10 µM | > 10 µM |
| CCOc1ccc(C[C@@H](NC(=O)c2ccncc2)C(=O)N[C@@H](Cc2ccc(F)c(F)c2)C(=O)NCc2ccc(CN)cc2)cc1 [Example 161, N-[(R)-1-[(S)-1-(4-Aminomethyl-benzylcarbamoyl)-2-(3,4-difluoro-phenyl)-ethylcarbamoyl]-2-(4-ethoxy-phenyl)-ethyl]-isonicotinamide] | – | – | 0.049 µM | 6.9 µM |
| NCc1ccc(CNC(=O)[C@H](Cc2ccccc2)NC(=O)[C@@H](Cc2ccc(O)cc2)NC(=O)c2ccccc2)cc1 [Example 129, N-[(R)-1-[(S)-1-(4-Aminomethyl-benzylcarbamoyl)-2-phenyl-ethylcarbamoyl]-2-(4-hydroxy-phenyl)-ethyl]-benzamide] | – | – | 10 µM | > 10 µM |
| COc1ccc(C[C@@H](NC(=O)c2ccccc2)C(=O)N[C@@H](Cc2ccccc2)C(=O)NCc2ccc(CN)cc2)cc1 [Example 138, N-[(R)-1-[(S)-1-(4-Aminomethyl-benzylcarbamoyl)-2-phenyl-ethylcarbamoyl]-2-(4-methoxy-phenyl)-ethyl]-benzamide] | – | – | 0.31 µM | > 10 µM |
| CCOc1ccc(C[C@@H](NC(=O)Nc2ccccc2)C(=O)N[C@@H](Cc2ccccc2)C(=O)NCc2ccc(CN)cc2)cc1 [Example 69, (R)-N-[(S)-1-(4-Aminomethyl-benzylcarbamoyl)-2-phenyl-ethyl]-3-(4-ethoxy-phenyl)-2-(3-phenyl-ureido)-propionamide] | – | – | 0.621 µM | > 10 µM |
| CCOc1ccc(C[C@@H](NC(=O)c2ccccc2)C(=O)N[C@@H](Cc2ccccc2)C(=O)NCc2ccc(CN)c(C(F)(F)F)c2)cc1 [Example 156, N-[(R)-1-[(S)-1-(4-Aminomethyl-3-trifluoromethyl-benzylcarbamoyl)-2-phenyl-ethylcarbamoyl]-2-(4-ethoxy-phenyl)-ethyl]-benzamide] | – | – | 1.08 µM | > 10 µM |
| CCOc1ccc(C[C@@H](NC(=O)c2cnc(Cl)c(Cl)c2)C(=O)N[C@@H](Cc2ccccc2)C(=O)NCc2ccc(CN)cc2)cc1 [Example 107, N-[(R)-1-[(S)-1-(4-Aminomethyl-benzylcarbamoyl)-2-phenyl-ethylcarbamoyl]-2-(4-ethoxy-phenyl)-ethyl]-5,6-dichloro-nicotinamide] | – | – | 0.133 µM | 7.5 µM |
| CCOc1ccc(C[C@@H](NC(=O)c2cccnc2C)C(=O)N[C@@H](Cc2ccccc2)C(=O)NCc2ccc(CN)cc2)cc1 [Example 105, N-[(R)-1-[(S)-1-(4-Aminomethyl-benzylcarbamoyl)-2-phenyl-ethylcarbamoyl]-2-(4-ethoxy-phenyl)-ethyl]-2-methyl-nicotinamide] | – | – | 0.185 µM | > 10 µM |
| NCc1ccc(CNC(=O)[C@H](Cc2ccccc2)NC(=O)[C@@H](Cc2ccc(OCc3ccc(F)cc3)cc2)NC(=O)c2ccccc2)cc1 [Example 130, N-{(R)-1-[(S)-1-(4-Aminomethyl-benzylcarbamoyl)-2-phenyl-ethylcarbamoyl]-2-[4-(4-fluoro-benzyloxy)-phenyl]-ethyl}-benzamide] | – | – | 2.49 µM | > 10 µM |
| CCOc1ccc(C[C@@H](NC(=O)c2ccncc2)C(=O)N[C@@H](Cc2ccccc2)C(=O)NCc2ccc(CN)c(F)c2)cc1 [Example 167, N-[(R)-1-[(S)-1-(4-Aminomethyl-3-fluoro-benzylcarbamoyl)-2-phenyl-ethylcarbamoyl]-2-(4-ethoxy-phenyl)-ethyl]-isonicotinamide] | – | – | 0.08 µM | > 10 µM |
| CCOc1ccc(C[C@@H](NC(=O)c2ccc3nc(C)ccc3c2)C(=O)N[C@@H](Cc2ccccc2)C(=O)NCc2ccc(CN)cc2)cc1 [Example 114, 2-Methyl-quinoline-6-carboxylic acid [(R)-1-[(S)-1-(4-aminomethyl-benzylcarbamoyl)-2-phenyl-ethylcarbamoyl]-2-(4-ethoxy-phenyl)-ethyl]-amide] | – | – | 0.427 µM | > 10 µM |
| CCOc1ccc(C[C@@H](NC(=O)c2ccccc2)C(=O)N[C@@H](Cc2ccc(OC)cc2)C(=O)NCc2ccc(CN)cc2)cc1 [Example 146, N-[(R)-1-[(S)-1-(4-Aminomethyl-benzylcarbamoyl)-2-(4-methoxy-phenyl)-ethylcarbamoyl]-2-(4-ethoxy-phenyl)-ethyl]-benzamide] | – | – | 0.232 µM | > 10 µM |
